Results as given in ChEMBL document CHEMBL5303573, “Mapping human microbiome drug metabolism by gut bacteria and their genes” (Nature, 2019).

Assays:
[1] = bacteroides thetaiotaomicron, 12 h, 2 µM
Description: The drug is tested on Bacteroides thetaiotaomicron strain: VPI-5482 for biotransformation. The drug concentrations were measured before and after a 12-h incubation by liquid-chromatography-coupled mass spectrometry (LC–MS)

[2] = The drug is tested on Bifidobacterium ruminantium strain: fecal isolate for biotransformation. The drug concentrations were measured before and after a 12-h incubation by liquid-chromatography-coupled mass spectrometry (LC–MS); conditions: 2 µM
[3] = anaerostipes sp., 12 h, 2 µM
Description: The drug is tested on Anaerostipes sp. strain: fecal isolate for biotransformation. The drug concentrations were measured before and after a 12-h incubation by liquid-chromatography-coupled mass spectrometry (LC–MS)

[4] = The drug is tested on Bacteroides dorei strain: DSM17855 for biotransformation. The drug concentrations were measured before and after a 12-h incubation by liquid-chromatography-coupled mass spectrometry (LC–MS); conditions: phocaeicola dorei, 2 µM
[5] = segatella copri, 12 h, 2 µM
Description: The drug is tested on Prevotella copri strain: DSM18205 for biotransformation. The drug concentrations were measured before and after a 12-h incubation by liquid-chromatography-coupled mass spectrometry (LC–MS)

[6] = roseburia intestinalis, 12 h, 2 µM
Description: The drug is tested on Roseburia intestinalis strain: L1-82 for biotransformation. The drug concentrations were measured before and after a 12-h incubation by liquid-chromatography-coupled mass spectrometry (LC–MS)

[7] = The drug is tested on Clostridium asparagiforme strain: DSM15981 for biotransformation. The drug concentrations were measured before and after a 12-h incubation by liquid-chromatography-coupled mass spectrometry (LC–MS); assay type: ADME; set-up: dose 2 uM, timepoint 0 vs 12 hours; conditions: enterocloster asparagiformis, 2 µM
[8] = bacteroides eggerthii, 12 h, 2 µM
Description: The drug is tested on Bacteroides eggerthii strain: DSM20697 for biotransformation. The drug concentrations were measured before and after a 12-h incubation by liquid-chromatography-coupled mass spectrometry (LC–MS)

[9] = bacteroides intestinalis, 12 h, 2 µM
Description: The drug is tested on Bacteroides intestinalis strain: DSM17393 for biotransformation. The drug concentrations were measured before and after a 12-h incubation by liquid-chromatography-coupled mass spectrometry (LC–MS)

[10] = akkermansia muciniphila, 12 h, 2 µM
Description: The drug is tested on Akkermansia muciniphila strain: ATCC BAA-835 for biotransformation. The drug concentrations were measured before and after a 12-h incubation by liquid-chromatography-coupled mass spectrometry (LC–MS)

[11] = The drug is tested on Bacteroides uniformis strain: ATCC8492 for biotransformation. The drug concentrations were measured before and after a 12-h incubation by liquid-chromatography-coupled mass spectrometry (LC–MS); conditions: 2 µM
[12] = The drug is tested on Bacteroides pectinophilus strain: ATCC43243 for biotransformation. The drug concentrations were measured before and after a 12-h incubation by liquid-chromatography-coupled mass spectrometry (LC–MS); conditions: 2 µM
[13] = The drug is tested on Ruminococcus lactaris strain: ATCC29176 for biotransformation. The drug concentrations were measured before and after a 12-h incubation by liquid-chromatography-coupled mass spectrometry (LC–MS); conditions: 2 µM
[14] = bacteroides fragilis, 12 h, 2 µM
Description: The drug is tested on Bacteroides fragilis strain: DS-208 for biotransformation. The drug concentrations were measured before and after a 12-h incubation by liquid-chromatography-coupled mass spectrometry (LC–MS)

[15] = The drug is tested on Bacteroides vulgatus strain: ATCC8482 for biotransformation. The drug concentrations were measured before and after a 12-h incubation by liquid-chromatography-coupled mass spectrometry (LC–MS); conditions: phocaeicola vulgatus, 2 µM
[16] = bacteroides thetaiotaomicron, 12 h, 2 µM; remark: listed apart in the source
Description: The drug is tested on Bacteroides thetaiotaomicron strain: 7330 for biotransformation. The drug concentrations were measured before and after a 12-h incubation by liquid-chromatography-coupled mass spectrometry (LC–MS)

[17] = The drug is tested on Alistipes indistinctus strain: DSM22520 for biotransformation. The drug concentrations were measured before and after a 12-h incubation by liquid-chromatography-coupled mass spectrometry (LC–MS); conditions: 2 µM
[18] = The drug is tested on Clostridium symbiosum strain: ATCC14940 for biotransformation. The drug concentrations were measured before and after a 12-h incubation by liquid-chromatography-coupled mass spectrometry (LC–MS); conditions: 2 µM
[19] = bacteroides fragilis, 12 h, 2 µM; remark: listed apart in the source
Description: The drug is tested on Bacteroides fragilis strain: 3397 (T10) for biotransformation. The drug concentrations were measured before and after a 12-h incubation by liquid-chromatography-coupled mass spectrometry (LC–MS)

[20] = The drug is tested on Eggerthella lenta strain: ATCC25559 for biotransformation. The drug concentrations were measured before and after a 12-h incubation by liquid-chromatography-coupled mass spectrometry (LC–MS); conditions: 2 µM

| Compound | Bacterial Biotransformation [1] | Bacterial Biotransformation [2] | Bacterial Biotransformation [3] | Bacterial Biotransformation [4] | Bacterial Biotransformation [5] | Bacterial Biotransformation [6] | Bacterial Biotransformation [7] | Bacterial Biotransformation [8] | Bacterial Biotransformation [9] | Bacterial Biotransformation [10] | Bacterial Biotransformation [11] | Bacterial Biotransformation [12] | Bacterial Biotransformation [13] | Bacterial Biotransformation [14] | Bacterial Biotransformation [15] | Bacterial Biotransformation [16] | Bacterial Biotransformation [17] | Bacterial Biotransformation [18] | Bacterial Biotransformation [19] | Bacterial Biotransformation [20] |
| --- | --- | --- | --- | --- | --- | --- | --- | --- | --- | --- | --- | --- | --- | --- | --- | --- | --- | --- | --- | --- |
| CCOC(=O)[C@H](CCc1ccccc1)N[C@H]1CCc2ccccc2N(CC(=O)O)C1=O [BENAZEPRIL] | Compound metabolized | Compound NOT metabolized | Compound NOT metabolized | Compound metabolized | Compound metabolized | Compound metabolized | Compound metabolized | Compound metabolized | Compound metabolized | Compound NOT metabolized | Compound metabolized | Compound NOT metabolized | Compound NOT metabolized | Compound metabolized | Compound metabolized | Compound metabolized | Compound NOT metabolized | Compound NOT metabolized | Compound metabolized |  |
| CC(C)(C)NCC(O)c1cc(Cl)c(N)c(Cl)c1 (stereo unspecified) [CLENBUTEROL] | Compound NOT metabolized |  | Compound NOT metabolized | Compound NOT metabolized | Compound NOT metabolized | Compound NOT metabolized |  | Compound NOT metabolized | Compound NOT metabolized | Compound NOT metabolized | Compound NOT metabolized | Compound NOT metabolized | Compound NOT metabolized | Compound NOT metabolized | Compound NOT metabolized |  | Compound NOT metabolized | Compound NOT metabolized | Compound NOT metabolized | Compound NOT metabolized |
| O=P1(N(CCCl)CCCl)NCCCO1 (stereo unspecified) [CYCLOPHOSPHAMIDE ANHYDROUS] | Compound NOT metabolized | Compound NOT metabolized |  |  | Compound NOT metabolized | Compound NOT metabolized |  | Compound NOT metabolized | Compound NOT metabolized | Compound NOT metabolized | Compound NOT metabolized |  |  | Compound NOT metabolized | Compound NOT metabolized |  | Compound metabolized | Compound NOT metabolized | Compound NOT metabolized | Compound NOT metabolized |
| CC#C[C@]1(O)CC[C@H]2[C@@H]3CCC4=CC(=O)CCC4=C3[C@@H](c3ccc(N(C)C)cc3)C[C@@]21C [MIFEPRISTONE] | Compound NOT metabolized |  | Compound NOT metabolized | Compound metabolized | Compound NOT metabolized | Compound NOT metabolized | Compound NOT metabolized |  | Compound NOT metabolized | Compound NOT metabolized | Compound NOT metabolized | Compound NOT metabolized | Compound NOT metabolized | Compound NOT metabolized | Compound metabolized | Compound NOT metabolized |  | Compound NOT metabolized | Compound NOT metabolized | Compound NOT metabolized |
| CCCc1nc(C(C)(C)O)c(C(=O)OCc2oc(=O)oc2C)n1Cc1ccc(-c2ccccc2-c2nnn[nH]2)cc1 [OLMESARTAN MEDOXOMIL] |  |  | Compound metabolized | Compound metabolized | Compound metabolized |  | Compound metabolized |  | Compound metabolized | Compound metabolized | Compound metabolized | Compound metabolized | Compound metabolized | Compound metabolized | Compound metabolized | Compound metabolized |  | Compound metabolized | Compound metabolized | Compound metabolized |
| CC(=O)SCC(Cc1ccccc1)C(=O)NCC(=O)OCc1ccccc1 (stereo unspecified) [RACECADOTRIL] | Compound metabolized |  | Compound NOT metabolized | Compound metabolized | Compound metabolized | Compound metabolized |  |  | Compound metabolized | Compound metabolized | Compound metabolized | Compound metabolized | Compound metabolized | Compound metabolized | Compound metabolized | Compound metabolized | Compound metabolized | Compound NOT metabolized |  | Compound NOT metabolized |
| CN1CCN(CC/C=C2/c3ccccc3Sc3ccc(S(=O)(=O)N(C)C)cc32)CC1 [THIOTHIXENE] | Compound NOT metabolized |  | Compound metabolized | Compound metabolized | Compound metabolized | Compound metabolized |  | Compound metabolized | Compound NOT metabolized | Compound NOT metabolized | Compound metabolized | Compound NOT metabolized | Compound metabolized | Compound NOT metabolized | Compound metabolized | Compound NOT metabolized | Compound NOT metabolized | Compound NOT metabolized | Compound NOT metabolized | Compound NOT metabolized |
